Source: US20230381168A1, “ADJUNCTIVE THERAPY FOR DEPRESSION” (ANeuroTech IP BV, priority 2020, published 2023)
Entries after “also recorded” stand apart in the source; their conditions may differ.

Key:
[1] = test system: patients suffering from moderate to severe MDD; assay: double-blind randomized multi-centre study, reported side effects (treatment emergent adverse effects); assay type: in vivo, human
[2] = test system: subject with medical history of major depression and severe insomnia; assay: sleep analysis with full PSG battery (EEG, EMG, infra-red video and sound): clinical relevant restlessness events; assay type: in vivo, human; details: PT1, after 3 weeks pipamperone 20 mg/day with tDCS
From the text: While during sleep the subject had no own noise making behaviour with an observed stable background noise level of +/−40 dB in the room, during these events the subject produced clear-cut enhancement of noise in the room with acute values of more than 50 dB combined with observable muscle activity (as observed by the EMG pattern), a state of being awake (as observed by the EEG) and an agitated behaviour (as observed by the clinical inspection infra-red video images).

[3] = test system: participants with major depressive disorder on continuing SSRI/SNRI; assay: placebo-controlled crossover study, PROMIS cognitive function questionnaire (subjective cognitive function); assay type: in vivo, human
Experimental: Eligible participants were admitted to the study center on Day 1 of Period 1 for first dosing. […] The cognitive function was measured using the PROMIS cognitive function questionnaire, completed in the morning, midday and evening. […] A higher T-score reflects a better cognitive functioning of the participant. […] Positive responders were further evaluated for the key secondary objective.

[4] = test system: patients suffering from moderate to severe MDD; assay: double-blind randomized multi-centre study, MADRS assessed by the clinical rater; assay type: in vivo, human
Experimental: Cognitive enhancement and suicidal thoughts were evaluated respectively according to the Montgomery-Asberg Depression Rating Scale (MADRS) item 6 and item 10, after 10 weeks of study treatment as assessed by the clinical rater. […] Remission rate of reduced ability to read/communicate is defined as a MADRS Item 6 total score at Baseline (Day 1)>3 to (end of) Week 10≤3 at Week 10 as assessed by the clinical rater. […] Change from baseline in total score on MADRS after the indicated period of study treatment as assessed by the clinical rater. […] Remission is defined as a MADRS total score ≤10 at the indicated period as assessed by the clinical rater. An international, double-blind, centrally randomized (stratified), multi-centre study in more than 400 patients suffering from moderate to severe MDD in up to 40 sites in the USA was conducted. […] Study visits were conducted 1, 2, 3, 4, 6, 8 and 10 weeks after study treatment initiation. Possible withdrawal effects were assessed 1 week after study treatment withdrawal. After 2, 3, 4, 6, and 10 weeks, patients were evaluated.

[5] = test system: participants with major depressive disorder on continuing SSRI/SNRI; assay: placebo-controlled crossover study, PROMIS Sleep-related impairments questionnaire; assay type: in vivo, human
Experimental: Participants randomized to receive Treatment B were administered placebo containing drinkable water with […] flavor. Each study week the participants received 10 mL of their study medication in an amber glass bottle with dropper containing 200 droplets. […] The sleep-related impairments were assessed using the PROMIS Sleep-related impairments questionnaire, completed in the morning, midday and evening. […] A higher T-score reflects more sleep-related impairments during the day.

[6] = test system: participants with major depressive disorder on continuing SSRI/SNRI; assay: placebo-controlled crossover study, mood questionnaire; assay type: in vivo, human
Experimental: Participants randomized to receive Treatment B were administered placebo containing drinkable water with […] flavor. Each study week the participants received 10 mL of their study medication in an amber glass bottle with dropper containing 200 droplets. […] The mood of the participants was also be measured using a questionnaire which evaluated going from very happy, relaxed, excited, not worried and fearful at all (1) to very sad, not relaxed and excited at all, extremely worried and fearful (5). This questionnaire was completed in the morning and in the evening.

[7] = test system: subjects with a medical history of major depressive disorder and current insomnia; assay: cognitive performance by Mini Mental State Examination (MMSE) in treated case subjects PT1-PT3; assay type: in vivo, human
Experimental: During the last three weeks of this period, the subject was treated with transcranial anodal direct current stimulation (tDCS) in daily sessions of 30 minutes in the morning every day of the week except Saturday and Sunday. The tDCS dose was 2 mA. The anode was placed over the left dorsolateral prefrontal cortex and the cathode was placed over the right dorsolateral prefrontal cortex. […] This combined treatment was continued for a following 3 weeks.

[8] = test system: MDD patients on antidepressant (partial responsive depression); assay: analysis of 62 MDD patients treated with adjunctive low-dose pipamperone; assay type: in vivo, human
D4 receptor = target: T1, D4 receptor (Homo sapiens, UniProt P21917); details: cited from earlier work
T1 sequence (P21917 1-419): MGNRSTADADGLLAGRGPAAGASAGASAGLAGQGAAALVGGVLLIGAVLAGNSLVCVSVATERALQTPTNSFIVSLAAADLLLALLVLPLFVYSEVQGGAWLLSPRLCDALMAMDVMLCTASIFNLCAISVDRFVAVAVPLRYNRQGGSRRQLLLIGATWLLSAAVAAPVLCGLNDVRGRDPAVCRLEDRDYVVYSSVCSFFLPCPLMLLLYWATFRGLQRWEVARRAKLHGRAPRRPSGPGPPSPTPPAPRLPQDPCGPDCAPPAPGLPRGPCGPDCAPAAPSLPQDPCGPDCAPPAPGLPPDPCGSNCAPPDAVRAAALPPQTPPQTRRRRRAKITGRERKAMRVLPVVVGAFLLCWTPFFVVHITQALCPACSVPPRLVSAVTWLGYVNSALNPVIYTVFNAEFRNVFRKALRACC

H1 receptor = H1 receptor (Homo sapiens, UniProt P35367); details: cited from earlier work
Sequence of H1 receptor (P35367 whole entry): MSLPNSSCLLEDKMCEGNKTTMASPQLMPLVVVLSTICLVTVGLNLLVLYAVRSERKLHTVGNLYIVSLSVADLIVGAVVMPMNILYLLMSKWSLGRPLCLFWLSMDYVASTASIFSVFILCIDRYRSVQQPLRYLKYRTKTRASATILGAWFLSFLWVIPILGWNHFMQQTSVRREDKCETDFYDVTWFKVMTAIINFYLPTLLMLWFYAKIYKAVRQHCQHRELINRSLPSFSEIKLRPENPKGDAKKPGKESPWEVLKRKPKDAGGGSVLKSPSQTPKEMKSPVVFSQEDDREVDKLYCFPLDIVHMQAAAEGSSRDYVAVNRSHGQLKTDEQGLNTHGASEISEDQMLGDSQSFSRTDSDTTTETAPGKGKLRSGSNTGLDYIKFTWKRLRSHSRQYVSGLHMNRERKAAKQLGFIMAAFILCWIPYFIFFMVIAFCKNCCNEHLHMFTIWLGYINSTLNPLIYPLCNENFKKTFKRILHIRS

[9] = test system: participants with major depressive disorder on continuing SSRI/SNRI; assay: placebo-controlled crossover study, sleep quality questionnaire; assay type: in vivo, human; details: all participants; 14 mg
Experimental: Participants randomized to receive Treatment B were administered placebo containing drinkable water with […] flavor. Each study week the participants received 10 mL of their study medication in an amber glass bottle with dropper containing 200 droplets. […] The sleep quality of the participants was measured using a scale going from very bad (1) to excellent (5). This questionnaire was only completed in the morning.

mACh receptors = details: cited from earlier work
[10] = test system: participants with major depressive disorder on continuing SSRI/SNRI; assay: placebo-controlled crossover study, Karolinska Sleepiness Scale; assay type: in vivo, human
Experimental: Participants randomized to receive Treatment B were administered placebo containing drinkable water with […] flavor. Each study week the participants received 10 mL of their study medication in an amber glass bottle with dropper containing 200 droplets. […] The sleepiness of the participants was also be measured using the Karolinska Sleepiness Scale going from very sleepy, having great difficulty staying awake, fighting sleep (9) to extremely alert (1). This questionnaire was completed in the morning, midday and evening.

[11] = prematurely discontinued patients
[12] = in particular after 6 weeks, even more so after 10 weeks

## CN(C)CCCC1(c2ccc(F)cc2)OCc2cc(C#N)ccc21 (stereo not shown) [Citalopram, citalopram]
[1]; all patients
  Decreased Appetite: 5.7%
  Diarrhoea: 9.7%
  Nausea: 16%
  Somnolence: 11.4%
[1]; [11]
  Decreased Appetite: 9%
  Diarrhoea: 11%
  Nausea: 18%
  Somnolence: 16%
  Vomiting: 9%

## NC(=O)C1(N2CCCCC2)CCN(CCCC(=O)c2ccc(F)cc2)CC1 [pipamperone, 1′-[3-(p-fluorobenzoyl)propyl]-[1,4′-bipiperidine]-4′-carboxamide]
[2]
  insomnia: improvement
  reduction of the clinical restlessness events: 75%
[2]; 4 before
  number of clinical restlessness events at night after treatment: 1
[1]; all patients
  Decreased Appetite: 1.6%
  Diarrhoea: 0.5%
  Nausea: 7.7%
  Somnolence: 6.6%
[1]; all patients and prematurely discontinued patients
  side effects overall (treatment emergent adverse effects, TEAE) compared to citalopram: low amount of side effects
[1]; [11]
  Decreased Appetite: 0%
  Diarrhoea: 0%
  Nausea: 6%
  Somnolence: 8%
  Vomiting: 0%
  side effects in subjects who discontinued the trial prematurely: significantly fewer side effects
[3]; 14 mg ad noctum add-on, 6 participants
  SUBJECTIVE COGNITIVE DECLINE: NON RESPONDER: 17%
[3]; 14 mg ad noctum add-on, 6 participants, Fisher exact test 0.0006, p<0.05
  SUBJECTIVE COGNITIVE DECLINE: RESPONDER: 50%
[3]; 14 mg, 14 days, add-on to SSRI/SNRI
  subjective cognitive function versus placebo: statistical significant (p<0.05) improvement
[3]; the two participants with high MADRS item 6 score (XR0 and WL4), 14 mg
  improvement of cognitive functioning compared with placebo: highest improvement
[4]; after 10 weeks of treatment
  cognitive enhancement rate (remission of reduced ability to read/communicate, MADRS item 6) compared to citalopram: superior
[4]; after 10 weeks, 15 mg QD
  cognitive function (MADRS item 6, change from baseline) compared to citalopram: Statistically significant superior effect; also recorded: statistically significant enhancement
  suicidal thoughts (MADRS item 10, change from baseline) compared to citalopram: Statistically significant superior effect; also recorded: significant reduction
[4]; [12]
  decrease of severity of major depressive disorder (MADRS total score) compared to citalopram: superior decrease
  proportion of patients in remission of major depressive disorder (MADRS total score ≤10) compared to citalopram: superior increase
[5]
  Sleep-related impairments, pipamperone 14 mg vs placebo: no clear difference
[6]
  Mood, pipamperone 14 mg vs placebo: no clear difference
[7]; PT1, after 3 weeks pipamperone 20 mg/day combined with 15 sessions tDCS 2 mA, 27 before treatment
  MMSE score: 30
[7]; PT1, another 2 months after tDCS was terminated, pipamperone 20 mg/d continued
  MMSE total score: 30 /30
[7]; PT2 (severe cognitive deterioration, 18/30 before), after 6 weeks of treatment
  MMSE: 17 /30
[7]; PT3 (28/30 before), after treatment
  MMSE: 30 /30
[7]; PT3, continuous (6 months) intake of low dose pipamperone
  restored cognitive performance: sustained
[8]; adjunctive 15 mg daily, MDD remittors
  residual symptoms anhedonia and cognitive impairment: resolved
[8]; after at least more than 1 year of treatment, n=53 of 62
  patients still responding to adjunctive treatment: 85%
[8]; long-term adjunctive treatment
  tolerability of the treatment: extremely good tolerability
[8]; printed as 'of these responders', n=25
  patients in sustained remission: 40%
[8]; switched from quetiapine, amisulpride, risperidone or clozapine
  cases that went into sustained remission after switch from existing adjunctive treatment: 6 out of these 8 cases
D4 receptor
  affinity for the D4 receptor over the D2 receptor: 15 fold
H1 receptor
  affinity for the H1 receptor: low and likely insignificant
[9]
  sleep quality compared with placebo: better quality of sleep
mACh receptors
  affinity for the mACh receptors: low and likely insignificant
[10]
  Karolinska Sleepiness Scale, pipamperone 14 mg vs placebo: no clear difference
